According to patent US11730405B2, “Body fluid leakage detection aqueous composition” (MAGLE CHEMOSWED HOLDING AB, priority 2017, dated 2023):
Several values for one entry are separate records, joined by “and”; a condition that tells them apart may be missing. Identical values can stand only once. Like-named read-outs stand apart in the source and are kept apart here.

Columns and labels:
[1] = cited from earlier work
[2] = Pharmacokinetics of BTB in drainage fluid and portal venous blood after abdominal application of PAN indicator hydrogel (HPLC-MS); assay type: in vivo, domestic pigs (Sus Scrofa Domestica); settings: for concentration at 1 day / concentration at 2 day / concentration at 0 min / concentration at 1 min / concentration at 5 min / concentration at 30 min / concentration at 60 min / concentration at 120 min: pig, other: abdominal application at the pancreatic surgery field; for concentration at 5 min: Min 5, mean of animals; for concentration at 30 min: Min 30, mean of animals
Method: (§1) PAN toxicology was evaluated by analyzing in vivo pharmacokinetics of its degradation products over 48 hours. Additionally, acute local tissue injury caused by the indicator within minutes as well as macroscopic intra-abdominal side effects and local histological of the device over 8 days were assessed. Finally, cytotoxicity of its degradation products on pancreatic target cells was analyzed.
For toxicological evaluation of PAN indicator hydrogel pharmacokinetics studies were conducted measuring concentrations of degradation products of the device in body fluid components over time consequently to abdominal application in pancreatic surgery. Blood from portal vein and peritoneal fluid from intraoperative situs or postoperative drainages were sampled. Time points of sampling in relation to indicator application were: 0 min (baseline before indicator application), 1, 5, 30, 60, and 120 min, 1st and 2nd postoperative day. Due to its composition with water and degradable components starch microspheres, only further constituent bromothymol blue (BTB) needed to be evaluated. It should be evaluated if and how much BTB stays in the organism after application at the pancreatic surgery field, gets resorbed to portal venous circulation and passes liver metabolism to reach central venous circulation. Thus, samples of body were collected at the different body compartments over time as described above. Due to expected extremely small BTB-amounts to be measured the very sensitive detection method High Pressure Liquid Chromatography-Mass Spectrometry (HPLC-MS) was used.

pancreatic target cells = assay: Cytotoxicity cell culture assay (resazurin to resofurin fluorescence photometry); assay type: cell-based
Method: as §1
Cytotoxicity by PAN was further evaluated in a cell culture assay. Metabolic activity of viable cells was evaluated by fluorescence photometry of metabolized resofurin from resazurin after incubation with increasing amount of BTB. PAN indicator hydrogels contain BTB at a concentration of almost 0.5 mg/ml. Thus BTB-solutions with concentrations of 0.5 mg/ml, 1 mg/ml, 1.5 mg/ml, and 5.5 mg/ml, respectively were tested. Cytotoxicity is defined as cell viability less than 70%.

[3] = drainage fluid (peritoneal fluid), pig drainage fluid, read-out: Drainage BTB-Concentration, Mean
[4] = portal venous blood, pig portal venous blood, read-out: Portal Venous Blood BTB-Concentration, Mean

Cc1c(C2(c3cc(C(C)C)c(O)c(Br)c3C)OS(=O)(=O)c3ccccc32)cc(C(C)C)c(O)c1Br [BTB, bromothymol blue]
pKa [1]: 7.0
Drainage BTB-Concentration ([2]; pig drainage fluid, Day 1 (1st postoperative day), individual animals Tox 1-4): < 20 ng/mL and 32.1 ng/mL and 18.9 ng/mL and 14.4 ng/mL and 2.98 ng/mL
Drainage BTB-Concentration ([2]; pig drainage fluid, Day 2 (2nd postoperative day), individual animals Tox 1-4): no detectable amount and 0 ng/ml
Drainage BTB-Concentration ([2]; pig drainage fluid, Min 0 (baseline before indicator application), individual animals Tox 1-4): 0 ng/ml (3×) and 7.44 ng/ml
Drainage BTB-Concentration ([2]; pig drainage fluid, Min 1 after indicator application, individual animals Tox 1-4): 2060 ng/mL and 9220 ng/mL and 3600 ng/mL and 2010 ng/mL
Drainage BTB-Concentration ([2]; pig drainage fluid, Min 5, individual animals Tox 1-4): 7650 ng/mL and 389 ng/mL and 2560 ng/mL and 2070 ng/mL
Drainage BTB-Concentration ([2]; pig drainage fluid, Min 30, individual animals Tox 1-4): 3280 ng/mL and 10.7 ng/mL and 1220 ng/mL and 712 ng/mL
Drainage BTB-Concentration ([2]; pig drainage fluid, Min 60, individual animals Tox 1-4): 1140 ng/mL and 9.27 ng/mL and 1270 ng/mL and 224 ng/mL
Drainage BTB-Concentration ([2]; pig drainage fluid, Min 120, individual animals Tox 1-4): 619 ng/mL and 263 ng/mL and 631 ng/mL and 121 ng/mL
Portal Venous Blood BTB-Concentration ([2]; pig portal venous blood, Day 1, individual animals Tox 1-4): 0 ng/mL
Portal Venous Blood BTB-Concentration ([2]; pig portal venous blood, Day 2, individual animals Tox 1-4): 0 ng/mL
Portal Venous Blood BTB-Concentration ([2]; pig portal venous blood, Min 0 (baseline before indicator application), individual animals Tox 1-4): 0 ng/mL
Portal Venous Blood BTB-Concentration ([2]; pig portal venous blood, Min 1, individual animals Tox 1-4): 0 ng/mL
Portal Venous Blood BTB-Concentration ([2]; pig portal venous blood, Min 5, individual animals Tox 1-4): 0 ng/ml (3×) and 2.02 ng/ml
Portal Venous Blood BTB-Concentration ([2]; pig portal venous blood, Min 30, individual animals Tox 1-4): 0 ng/ml (3×) and 2.11 ng/ml
Portal Venous Blood BTB-Concentration ([2]; pig portal venous blood, Min 60, individual animals Tox 1-4): 0 ng/mL
Portal Venous Blood BTB-Concentration ([2]; pig portal venous blood, Min 120, individual animals Tox 1-4): 0 ng/mL
concentration at 1 day ([2]; drainage fluid (peritoneal fluid), pig drainage fluid, Day 1, mean of animals, read-out: Drainage BTB-Concentration, Mean): 17.1 ng/mL
concentration at 2 day ([2]; drainage fluid (peritoneal fluid), pig drainage fluid, Day 2 (2nd postoperative day), individual animals Tox 1-4, read-out: Drainage BTB-Concentration): 0 ng/mL
concentration at 2 day ([2]; drainage fluid (peritoneal fluid), pig drainage fluid, Day 2, mean of animals, read-out: Drainage BTB-Concentration, Mean): 0 ng/mL
concentration at 0 min ([2]; drainage fluid (peritoneal fluid), pig drainage fluid, Min 0 (baseline before indicator application), mean of animals, read-out: Drainage BTB-Concentration, Mean): 1.9 ng/mL
concentration at 1 min ([2]; drainage fluid (peritoneal fluid), pig drainage fluid, Min 1, mean of animals, read-out: Drainage BTB-Concentration, Mean): 4220 ng/mL
concentration at 5 min [2, 3]: 3170 ng/mL
concentration at 30 min [2, 3]: 1310 ng/mL
concentration at 60 min ([2]; drainage fluid (peritoneal fluid), pig drainage fluid, Min 60, mean of animals, read-out: Drainage BTB-Concentration, Mean): 661 ng/mL
concentration at 120 min ([2]; drainage fluid (peritoneal fluid), pig drainage fluid, Min 120, mean of animals, read-out: Drainage BTB-Concentration, Mean): 408 ng/mL
concentration at 1 day ([2]; portal venous blood, pig portal venous blood, Day 1, individual animals Tox 1-4, read-out: Portal Venous Blood BTB-Concentration): 0 ng/mL
concentration at 1 day ([2]; portal venous blood, pig portal venous blood, Day 1, mean of animals, read-out: Portal Venous Blood BTB-Concentration, Mean): 0 ng/mL
concentration at 2 day ([2]; portal venous blood, pig portal venous blood, Day 2, individual animals Tox 1-4, read-out: Portal Venous Blood BTB-Concentration): 0 ng/mL
concentration at 2 day ([2]; portal venous blood, pig portal venous blood, Day 2, mean of animals, read-out: Portal Venous Blood BTB-Concentration, Mean): 0 ng/mL
concentration at 0 min ([2]; portal venous blood, pig portal venous blood, Min 0 (baseline before indicator application), individual animals Tox 1-4, read-out: Portal Venous Blood BTB-Concentration): 0 ng/mL
concentration at 0 min ([2]; portal venous blood, pig portal venous blood, Min 0 (baseline before indicator application), mean of animals, read-out: Portal Venous Blood BTB-Concentration, Mean): 0 ng/mL
concentration at 1 min ([2]; portal venous blood, pig portal venous blood, Min 1, individual animals Tox 1-4, read-out: Portal Venous Blood BTB-Concentration): 0 ng/mL
concentration at 1 min ([2]; portal venous blood, pig portal venous blood, Min 1, mean of animals, read-out: Portal Venous Blood BTB-Concentration, Mean): 0 ng/mL
concentration at 5 min [2, 4]: 0.51 ng/mL
concentration at 30 min [2, 4]: 0.53 ng/mL
concentration at 60 min ([2]; portal venous blood, pig portal venous blood, Min 60, individual animals Tox 1-4, read-out: Portal Venous Blood BTB-Concentration): 0 ng/mL
concentration at 60 min ([2]; portal venous blood, pig portal venous blood, Min 60, mean of animals, read-out: Portal Venous Blood BTB-Concentration, Mean): 0 ng/mL
concentration at 120 min ([2]; portal venous blood, pig portal venous blood, Min 120, individual animals Tox 1-4, read-out: Portal Venous Blood BTB-Concentration): 0 ng/mL
concentration at 120 min ([2]; portal venous blood, pig portal venous blood, Min 120, mean of animals, read-out: Portal Venous Blood BTB-Concentration, Mean): 0 ng/mL
BTB in portal venous blood ([2]; pigs, 5 and 30 minutes after application, remaining pigs and timepoints no BTB detected): small amounts of BTB were found only in one pig
cytotoxicity (defined as cell viability less than 70%) (pancreatic target cells; 5.5 mg/ml of BTB): slight toxicity
cytotoxicity (defined as cell viability less than 70%) (pancreatic target cells; 0.5-1.5 mg/ml of BTB): No cytotoxicity
